Some test systems named below: LXFL 529; SNB-78; RXF 631; DLD-1; DMS-273; HOP-18; KM-20L2; M19-MEL; XF498.
What all share (experiment): NCI tumour cell line growth inhibition, 48 h

Molecules are shown by their SMILES.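 1) Cells in 96-well plates. 2) Compound, 48 h, 5 concentrations. 3) Linear interpolation between surrounding doses. 4) Unreached endpoint = highest concentration. GI50 is the concentration that inhibits growth by half.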 Activity calls are given as the source filed them. No stated cut-off is given here; in the data, active = GI50 up to about 1.1 µM and inactive = higher.

For the compound `Cc1cccc2c1c1ccc3c(c1n2C)C(=O)C=CC3=O`, the GI50 was 2.01 µM (inactive) in the assay with LXFL 529; 16.2 µM (inactive) with SNB-78; 6.79 µM (inactive) with RXF 631; 2.28 µM (inactive) in the assay on DLD-1; 3.11 µM (inactive) with DMS-273; 10 µM (inactive) with HOP-18. Moreover, the GI50 in the assay with KM-20L2 was 16.2 µM (inactive); in the assay on M19-MEL, 5.33 µM (inactive).

As for `COc1ccc2c(c1)[n+]([O-])c(C(=O)CC(=O)C(=O)Nc1cccc(C)c1C)c(C)[n+]2[O-]`, the GI50 with LXFL 529, with SNB-78, in the assay on RXF 631, in the assay on XF498, with DLD-1 and with HOP-18 was > 100 µM (inactive) each time. Also, the GI50 with KM-20L2 and in the assay on M19-MEL was > 100 µM (inactive) throughout.

With `CCOC(=O)CCC(=O)C1c2cccc(O)c2C(=O)c2c(O)cc(C)cc21` (stereo unspecified), the GI50 in the assay on LXFL 529 was 0.643 µM (active); in the assay with SNB-78, 0.542 µM (active); with RXF 631, 0.771 µM (active); in the assay on XF498 it was 0.211 µM (active); in the assay with DLD-1, 1.21 µM (inactive); with DMS-273, 0.785 µM (active). In addition, the GI50 in the assay on HOP-18 was 0.515 µM (active); with KM-20L2 it was 1.83 µM (inactive); with M19-MEL it was 0.637 µM (active).

In the case of `CC(=O)CC(=O)Nc1ccc(OS(N)(=O)=O)cc1`, the GI50 in the assay on LXFL 529, in the assay with SNB-78, in the assay on RXF 631, with XF498, with DLD-1 and in the assay on DMS-273 was > 100 µM (inactive) each time. Also, the GI50 with HOP-18, in the assay with KM-20L2 and with M19-MEL was > 100 µM (inactive) throughout.

As to `CCOC(=O)COc1ccccc1/C=C1\CCC(CN(C)C)C1=O` (stereo unspecified), the GI50 in the assay with LXFL 529 was 2.45 µM (inactive); in the assay with SNB-78, 21.2 µM (inactive); with RXF 631, 17.9 µM (inactive); in the assay with DLD-1 it was 3.99 µM (inactive); in the assay on DMS-273, 2.91 µM (inactive); in the assay with HOP-18, 23.2 µM (inactive). Besides, the GI50 with KM-20L2 was 11.6 µM (inactive); in the assay with M19-MEL, 3.18 µM (inactive).

In the case of `Cc1ccc(N2C(=O)/C(=C3\Sc4c(nc(C)n(C)c4=O)N3c3ccccc3)SC2=S)cc1`, the GI50 was 68.7 µM (inactive) with LXFL 529; 40.8 µM (inactive) in the assay on SNB-78; > 100 µM (inactive) with XF498; 25.2 µM (inactive) with DMS-273; > 100 µM (inactive) in the assay on KM-20L2; > 100 µM (inactive) with M19-MEL.

On to `CC1COC(C)(C)P(=O)(c2ccccc2)C1` (stereo unspecified), for which the GI50 in the assay on LXFL 529, in the assay with SNB-78, with XF498, in the assay with DLD-1, in the assay with DMS-273 and in the assay on HOP-18 was > 100 µM (inactive) throughout. For the same compound, the GI50 with KM-20L2 and with M19-MEL was > 100 µM (inactive) each time.

For the compound `C[C@]12CC[C@H](O)CC1=CC[C@@H]1C2CC[C@]2(C)C(=O)NC(=O)CC12` (stereo partly specified), the GI50 is 74.3 µM (inactive) in the assay on LXFL 529; > 100 µM (inactive) in the assay with SNB-78; 76.7 µM (inactive) in the assay with RXF 631; > 100 µM (inactive) in the assay on XF498; 44.6 µM (inactive) in the assay with DLD-1; 56.9 µM (inactive) in the assay on DMS-273. Moreover, the GI50 in the assay with HOP-18, in the assay on KM-20L2 and with M19-MEL was > 100 µM (inactive) throughout.

In the case of `C=C(c1ccccc1)[C@@]1(O)CCCC[C@H]1NC(c1ccccc1)c1ccccc1`, the GI50 in the assay on LXFL 529 was 11.1 µM (inactive); in the assay on SNB-78 it was 19.7 µM (inactive); with DLD-1, 14.6 µM (inactive); in the assay on DMS-273, 13.1 µM (inactive); with HOP-18 it was 19.9 µM (inactive); with KM-20L2, 13.8 µM (inactive). Besides, the GI50 with M19-MEL was 15 µM (inactive).

Take `CCOC(=O)/C(=C\c1ccc(OCc2ccccc2)c(OC)c1)C(=O)c1ccccc1`: the GI50 with SNB-78 was 31.3 µM (inactive); in the assay with XF498, 18.1 µM (inactive); in the assay with KM-20L2, 19.5 µM (inactive); in the assay with M19-MEL it was 22.1 µM (inactive).

On to `COc1ccc(Cn2c(C)nc3c2C(=O)c2ccccc2C3=O)cc1`, for which the GI50 with LXFL 529 is 4.31 µM (inactive); with SNB-78 it was 16.1 µM (inactive); in the assay with XF498 it was 11.7 µM (inactive); in the assay on DLD-1 it was 4.67 µM (inactive); in the assay on DMS-273 it was 3.32 µM (inactive); in the assay on KM-20L2, 11.6 µM (inactive). Further, in the assay on M19-MEL, the GI50 is 7.91 µM (inactive).

For `O=C1OC(Cc2ccccc2)(N2CCCC2=O)C1c1ccccc1` (stereo unspecified), the GI50 with LXFL 529 was 78.3 µM (inactive); with SNB-78, > 100 µM (inactive); in the assay with XF498 it was 20.3 µM (inactive); with DLD-1, 55.3 µM (inactive); in the assay with KM-20L2, > 100 µM (inactive); in the assay with M19-MEL, > 100 µM (inactive).

For `CC(=O)OCc1c2ccccc2c(C)c2c1cc(F)c1ccccc12`, the GI50 with LXFL 529 is 29.6 µM (inactive); in the assay on SNB-78, 14.3 µM (inactive); in the assay with RXF 631, 25.8 µM (inactive); with XF498, 16.6 µM (inactive); with DLD-1, 14.8 µM (inactive); in the assay with DMS-273, 10.4 µM (inactive). Besides, the figures for the GI50 in the assay with HOP-18 and in the assay on KM-20L2 were 24.6 µM (inactive) and 28.8 µM (inactive), respectively.

For the compound `Cn1nc(-c2ccccc2)c(C(=O)/C=C/c2ccc(F)cc2)c(N2CCOCC2)c1=O`, the GI50 was 16 µM (inactive) in the assay on LXFL 529; 27.7 µM (inactive) in the assay with RXF 631; 19.8 µM (inactive) in the assay on XF498; 23.1 µM (inactive) with DLD-1; 19.1 µM (inactive) in the assay on DMS-273; 17.3 µM (inactive) with HOP-18. Also, the GI50 in the assay on KM-20L2 is 15.1 µM (inactive); with M19-MEL, 18.5 µM (inactive).

On to `COC(=O)C(=O)C(CC(=O)Nc1cc(Cl)ccc1Cl)C(=O)OC` (stereo unspecified), for which the GI50 in the assay with LXFL 529, in the assay on SNB-78, in the assay on DMS-273, with HOP-18 and in the assay with KM-20L2 was > 100 µM (inactive) in each case.

Turning to `CC(=S)NNC(=O)c1ccncc1`, the GI50 in the assay on LXFL 529, in the assay with SNB-78, in the assay with XF498, in the assay with DLD-1, in the assay with DMS-273 and in the assay on HOP-18 was > 100 µM (inactive) throughout. Also, the GI50 with KM-20L2 and with M19-MEL was > 100 µM (inactive) each time.

As to `Cc1ccc(S(=O)OC23CC4CC(CC(C4)C2)C3)cc1` (stereo unspecified), the GI50 in the assay with LXFL 529 was > 100 µM (inactive); in the assay on SNB-78 it was > 100 µM (inactive); in the assay on RXF 631, 72.8 µM (inactive); in the assay on XF498, > 100 µM (inactive); in the assay with DLD-1 it was > 100 µM (inactive); with DMS-273, > 100 µM (inactive). Also, the GI50 in the assay with HOP-18, in the assay on KM-20L2 and in the assay on M19-MEL was > 100 µM (inactive) throughout.

As for `COc1ccc(C2=C(Cl)c3cc(OC)c(OC)cc3C2)cc1OC`, the GI50 in the assay with LXFL 529, with SNB-78, with XF498, in the assay on DLD-1, with DMS-273 and in the assay on HOP-18 was > 100 µM (inactive) each time. For the same compound, the GI50 in the assay on KM-20L2 and with M19-MEL was > 100 µM (inactive) in each case.

Consider `CC(=O)C(CN(C(C)C)C(C)C)C(c1ccccc1)c1c(O)c2ccccc2oc1=O` (stereo unspecified), for which the GI50 in the assay with LXFL 529 is > 100 µM (inactive); in the assay with SNB-78, 97.1 µM (inactive); in the assay with RXF 631, > 100 µM (inactive); with DLD-1, > 100 µM (inactive); with DMS-273 it was > 100 µM (inactive); with HOP-18 it was > 100 µM (inactive). The GI50 with KM-20L2 and in the assay with M19-MEL was > 100 µM (inactive) in each case.

As for `COc1cc(/C=C2\[C@@H]3NC(Cc4c(OC)c(C)c(OC)c(OC)c43)C(=O)N2Cc2ccccc2)c(OC)c(C)c1OC`, the GI50 was 37.5 µM (inactive) in the assay on LXFL 529; 53.7 µM (inactive) in the assay on RXF 631; 45.4 µM (inactive) in the assay on DLD-1; 27.9 µM (inactive) in the assay with DMS-273; 43.8 µM (inactive) with HOP-18; 37.8 µM (inactive) in the assay on KM-20L2. Further, in the assay on M19-MEL, the GI50 is 28.5 µM (inactive).

Take `CC(=O)N1CCN(c2ccc(OCC3COC(Cn4ccnc4)(c4ccc(Cl)cc4Cl)O3)cc2)CC1` (stereo unspecified) [KETOCONAZOLE]: the GI50 in the assay with LXFL 529 was 26.4 µM (inactive); in the assay with DLD-1, 33 µM (inactive); in the assay on DMS-273, 20.5 µM (inactive); with HOP-18 it was > 100 µM (inactive); in the assay on KM-20L2, 32.7 µM (inactive); with M19-MEL, 21.4 µM (inactive).

These data come from ChEMBL document CHEMBL1201862, “PubChem BioAssay data set” (2004).
